The text below walks through data of patent US20080146651A1, “Injectable Composition for the Treatment of Cancers” (priority 2004, published 2008).

Where only a bound is given, the exact number is not on record here.

The data set is described as follows: Stability test of paclitaxel according to varying pH values (HPLC residual percentage). The format is physicochemical. Particulars: for Initial residual percentage (0 hour) / Residual percentage after 24 hours / Residual percentage after 48 hours: 40° C.

Method: Paclitaxel was completely dissolved using glycofurol and Solutol HS15, and was then diluted in a McIlvaine buffer at pH 3˜8. The dilution was allowed to stand at 40° C. After 24 and 48 hours, the residual percentages of paclitaxel were measured by HPLC.

Take `CC(=O)O[C@H]1C(=O)[C@@]2(C)[C@H]([C@H](OC(=O)c3ccccc3)[C@]3(O)C[C@H](OC(=O)[C@H](O)[C@@H](NC(=O)c4ccccc4)c4ccccc4)C(C)=C1C3(C)C)[C@]1(OC(C)=O)CO[C@@H]1C[C@@H]2O` [paclitaxel]: the residual percentage is, setting by setting: (around pH 5, for 48 hours) not below 99%; (pH 4˜6, for 48 hours) not below 98%. Also, the “Initial residual percentage (0 hour)” value was 100% (pH 3, McIlvaine buffer); 100% (pH 4, McIlvaine buffer); 100% (pH 5, McIlvaine buffer); 100% (pH 6, McIlvaine buffer); 100% (pH 7, McIlvaine buffer); 100% (pH 8, McIlvaine buffer). Also, the “Residual percentage after 24 hours” value came to 99.239% (pH 3, McIlvaine buffer); 99.025% (pH 4, McIlvaine buffer); 99.414% (pH 5, McIlvaine buffer); 98.765% (pH 6, McIlvaine buffer); 96.109% (pH 7, McIlvaine buffer); 77.297% (pH 8, McIlvaine buffer). Further, the “Residual percentage after 48 hours” value (pH 3, McIlvaine buffer) is 97.509%; the “Residual percentage after 48 hours” value (pH 4, McIlvaine buffer) stood at 98.221%; the “Residual percentage after 48 hours” value (pH 5, McIlvaine buffer) turned out to be 99.292%; the “Residual percentage after 48 hours” value (pH 6, McIlvaine buffer) is recorded as 98.183%; the “Residual percentage after 48 hours” value (pH 7, McIlvaine buffer) was determined as 94.344%; the “Residual percentage after 48 hours” value (pH 8, McIlvaine buffer) is reported as 57.38%. The “stability of paclitaxel with the passage of time” value (pH 4˜6) is “stable”.
